The values that follow come from article PMC5447021, “TNF Lectin-Like Domain Restores Epithelial Sodium Channel Function in Frameshift Mutants Associated with Pseudohypoaldosteronism Type 1B” (Frontiers in Immunology, 2017).

Assay [1] has as its system αT169fs (co-expressed with βγ-ENaC). As to the kind of experiment: Whole-cell patch clamp, αT169fs + WT βγ. The class given is cell-based, human. The note with it: read-out: EC50, solnatide, HEK-293, whole-cell, -100 mV, n = 9. How it is done:
(§1) Point mutations of α-, β-, γ- and δ-hENaC and PHA1B frameshift mutations of α-hENaC were prepared with the QuikChange Lightning Site-Directed Mutagenesis Kit (Agilent Technologies, CA, USA). Mutagenic primers were designed individually with the Primer Design Program provided on the producer’s website or for the frameshift mutations the same base changes as reported in patients (see Table 2) were performed. Primers were ordered from Sigma-Aldrich, Vienna, Austria.
(§2) HEK-293 cells were transfected 1 day after cell seeding using X-tremeGENE HP DNA transfection reagent (Roche Diagnostics, Mannheim, Germany) according to the manufacturer’s protocol. A set of WT or mutant αβγ- or δβγ-hENaC, or α-, β-, γ-, or δ-hENaC alone was used, and the ratio of DNA to transfection reagent was 1:3. The expression was highest 48–72 h after transfection.
(§3) Electrophysiological experiments were performed as described in detail by Shabbir et al. ([16]). […] Currents were recorded with the patch clamp method in the whole-cell mode. The chamber contained 1 ml of the bath solution of the following composition (in mM): 145 NaCl, 2.7 KCl, 1.8 CaCl2, 2 MgCl2, 5.5 glucose, and 10 HEPES, adjusted to pH 7.4 with 1 M NaOH solution. Micropipettes were pulled from thin-walled borosilicate glass capillaries (Harvard Apparatus, Holliston, MA, USA) with a DMZ Zeitz Puller to obtain electrode resistances ranging from 2 to 5 MΩ. […]

The subject of assay [2] is αE272fs (co-expressed with βγ-ENaC). As to the kind of experiment: Whole-cell patch clamp, αE272fs + WT βγ. The class given is cell-based, human. The note with it: read-out: EC50, solnatide, HEK-293, whole-cell, -100 mV, n = 5, p < 0.001 vs WT. As to the method:
as §1, §2, §3

The test system of a further assay is αI68fs. As to the kind of experiment: Membrane abundance of αI68fs. The class given is cell-based, human. The note with it: 200 nM, relative to WT control (=1). As to the method:
Cell surface biotinylation was performed as previously described ([26]). In brief, A549 cells or transiently transfected HEK-293 cells were grown in 10 cm dishes in 37°C, 5% CO2 incubator in DMEM medium supplemented with 5% FBS. […] Medium was aspirated, and then cells were washed twice with 10 ml ice-cold phosphate-buffered saline (PBS), covered with 2.5 mg EZ-Link Sulfo-NHS-SS-Biotin (Thermo Scientific, Rockford, USA), dissolved in 10 ml ice-cold PBS, and incubated at 4°C with gentle agitation for 30 min. Fifty milliliters of quenching solution were added to cells; then cells were scraped in solution and transferred to fresh 50 ml tube. Cell suspension was centrifuged at 500 × g for 3 min. Supernatant was discarded, and 5 ml of Tris-buffered saline (TBS) was added to the cell pellet. The cell pellet was resuspended and centrifuged at 500 × g for 3 min. Supernatant was discarded and cell pellet was resuspended in lysis buffer containing protease inhibitor cocktail (10 µM pepstatin A, 10 µM phenylmethylsulfonyl fluoride, and 10 µM leupeptin) and transferred to fresh 1.5 ml centrifuge tube. Cell pellet was then homogenized on ice by ultrasonication using 1 s bursts and incubated on ice for at least 30 min. Intact cells and nuclei were pelleted by centrifugation at 10,000 × g for 2 min under cooling conditions. […] Exposed films were scanned and quantified using ImageJ (NIH, MD, USA). […]

A further assay has as its system β-ENaC. Conditions: HEK-293, 5 and 10 min; cited from earlier work.
Another assay concerns γ-ENaC. Conditions: HEK-293, 5 and 10 min; cited from earlier work.

In general, EC50 refers to the concentration giving half of the maximal effect. Take `C[C@@H]1NC(=O)CNC(=O)[C@H](CCC(=O)O)NC(=O)[C@@H]2CCCN2C(=O)[C@H]([C@@H](C)O)NC(=O)[C@H](CCC(=O)O)NC(=O)[C@H](CCCNC(=N)N)NC(=O)[C@H](CCC(N)=O)NC(=O)CNC(=O)[C@@H](N)CSSC[C@@H](C(=O)O)NC(=O)[C@H](Cc2ccc(O)cc2)NC(=O)[C@H](Cc2c[nH]c3ccccc23)NC(=O)[C@@H]2CCCN2C(=O)[C@H](CCCCN)NC(=O)[C@H](C)NC(=O)[C@H](CCC(=O)O)NC1=O` [solnatide, L-cysteine, L-cysteinylglycyl-L-glutaminyl-L-arginyl-L-α-glutamyl-L-threonyl-L-prolyl-L-α-glutamylglycyl-L-alanyl-L-α-glutamyl-L-alanyl-L-lysyl-L-prolyl-L-tryptophyl-L-tyrosyl-, cyclic (1→17)-disulfide]: the EC50 in assay [1] is 58.3 ± 5.2 nM; in assay [2], 75.6 ± 5.4 nM. In addition, in the assay with αI68fs (5 min, own control 0.15 ± 0.06, p < 0.05 vs control), the “Membrane abundance, solnatide 5 min” value is 0.25 ± 0.07. In addition, the “Membrane abundance, solnatide 10 min” value in the assay with αI68fs (10 min, own control 0.15 ± 0.06, p < 0.01 vs control) is on record as 0.32 ± 0.11. Besides, the “Membrane abundance, solnatide” value in the assay on β-ENaC and in the assay on γ-ENaC was “only slight” in each case.
